Experiments:
[1] = test system: L. reuteri growth; test: Antimicrobial susceptibility profiling, broth microdilution MIC against clinically relevant antibiotics (EFSA cut offs); type: cell-based; set-up: unit not given here; details: for Minimum inhibitory concentration (MIC), L. reuteri PTA-126787: strain L. reuteri PTA-126787, two biological replicates; for Minimum inhibitory concentration (MIC), L. reuteri PTA-126788: strain L. reuteri PTA-126788, two biological replicates
Description: Antimicrobial susceptibility testing was performed using broth microdilution method, using LSB medium (Mueller Hinton broth containing 5% horse blood) following Clinical and Laboratory Standards Institute (CLSI, 28th edition) guidelines. Two-fold dilutions of the clinically relevant antibiotics (Clindamycin, Chloramphenicol, Erythromycin, Gentamicin, Kanamycin, Streptomycin, Tetracycline and Ampicillin, all purchased from Sigma Aldrich) were prepared in LSB medium. Approximately, 50 μL of 1×10^5 CFUs/mL of the L. reuteri cells were added into each well. “No antibiotic” and “medium” alone controls were included. […], Pseudomonas aeruginosa ATCC 27853, Staphylococcus aureus ATCC 29213, Enterococcus faecalis ATCC 29212, Streptococcus pneumonia ATCC 49619 and Lacticaseibacillus paracasei ATCC 334 were used as quality control organisms. The plates were incubated for 24-48 hours under microaerophilic conditions. […] The strains were classified as susceptible or resistant using the microbiological cut offs established by EFSA (35).

[2] = test system: L. reuteri growth; details: EFSA guideline species cut-off for L. reuteri; cited from earlier work

Compound	Minimum inhibitory concentration (MIC), L. reuteri PTA-126787 [1]	Minimum inhibitory concentration (MIC), L. reuteri PTA-126788 [1]	EFSA microbiological cut off values for L. reuteri [2]
CC1(C)S[C@@H]2[C@H](NC(=O)[C@H](N)c3ccccc3)C(=O)N2[C@H]1C(=O)O [Ampicillin]	1	1	2
CC[C@H]1OC(=O)[C@H](C)[C@@H](O[C@H]2C[C@@](C)(OC)[C@@H](O)[C@H](C)O2)[C@H](C)[C@@H](O[C@@H]2O[C@H](C)C[C@H](N(C)C)[C@H]2O)[C@](C)(O)C[C@@H](C)C(=O)[C@H](C)[C@@H](O)[C@]1(C)O [Erythromycin]	0.12	0.12	1
O=C(N[C@H](CO)[C@H](O)c1ccc([N+](=O)[O-])cc1)C(Cl)Cl [Chloramphenicol]	2	2	4
CCC[C@@H]1C[C@@H](C(=O)N[C@@H]([C@H]2O[C@H](SC)[C@H](O)[C@@H](O)[C@H]2O)[C@H](C)Cl)N(C)C1 [Clindamycin]	≥0.06	≥0.06	–
CN(C)[C@@H]1C(O)=C(C(N)=O)C(=O)[C@@]2(O)C(O)=C3C(=O)c4c(O)cccc4[C@@](C)(O)[C@H]3C[C@@H]12 [Tetracycline]	32/64	32/64	–
NC[C@H]1O[C@H](O[C@H]2[C@H](O)[C@@H](O[C@H]3O[C@H](CO)[C@@H](O)[C@H](N)[C@H]3O)[C@H](N)C[C@@H]2N)[C@H](O)[C@@H](O)[C@@H]1O [Kanamycin]	16	16	–
[H]/N=C(/N)N[C@H]1[C@H](O)[C@@H](O)[C@H](O[C@@H]2O[C@@H](C)[C@](O)(C=O)[C@H]2O[C@@H]2O[C@@H](CO)[C@H](O)[C@@H](O)[C@@H]2NC)[C@@H](N/C(N)=N\[H])[C@@H]1O [Streptomycin]	8	8	64
Gentamicin	1	1	8

Source: patent US20260137736A1, “PROBIOTIC LACTOBACILLUS STRAIN COMPOSITIONS AND APPLICATIONS THEREFOR INCLUDING FOR LEAKY GUT AND INFLAMMATION” (priority 2021, published 2026)
